# Data: ChEMBL document CHEMBL3526078, “Pharmacokinetics and hepatic uptake of eltrombopag, a novel platelet-increasing agent” (Drug Metab Dispos, 2011)
# Legend:
# [1] = target: T1, Organic cation/carnitine transporter 2 (Homo sapiens, UniProt O76082); assay: Inhibition of OCTN2-mediated [14C]carnitine uptake in human OCTN2 expressing HEK293/PDZK1 cells by scintillation counting; assay type: cell-based
# T1 sequence (O76082 whole entry): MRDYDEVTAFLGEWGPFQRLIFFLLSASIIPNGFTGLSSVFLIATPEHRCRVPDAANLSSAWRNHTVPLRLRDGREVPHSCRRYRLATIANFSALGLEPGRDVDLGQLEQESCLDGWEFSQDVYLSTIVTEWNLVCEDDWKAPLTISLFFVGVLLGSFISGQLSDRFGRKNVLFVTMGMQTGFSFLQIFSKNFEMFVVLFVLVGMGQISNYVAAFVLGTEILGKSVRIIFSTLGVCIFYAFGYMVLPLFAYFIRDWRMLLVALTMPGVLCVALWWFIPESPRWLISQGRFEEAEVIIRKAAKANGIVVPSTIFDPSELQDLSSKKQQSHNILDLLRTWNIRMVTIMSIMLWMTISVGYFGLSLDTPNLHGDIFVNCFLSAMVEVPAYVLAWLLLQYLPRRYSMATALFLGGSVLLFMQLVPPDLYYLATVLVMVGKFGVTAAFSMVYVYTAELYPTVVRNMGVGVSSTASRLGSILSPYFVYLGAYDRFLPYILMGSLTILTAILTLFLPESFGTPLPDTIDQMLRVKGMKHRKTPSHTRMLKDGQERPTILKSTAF
# Kidney = assay: Tissue uptake clearance in mouse kidney at […] mg/kg, iv in presence of 30 umol/kg TPeA; assay type: ADME, organism-based; settings: in vivo
# Liver = assay: Tissue uptake clearance in mouse liver at […] mg/kg, iv in presence of 30 umol/kg TPeA; assay type: ADME, organism-based; settings: in vivo
inhibition (INH) [1],Drug uptake (Kidney),Drug uptake (Liver),SMILES
Active,,,C[N+](C)(C)CC(O)CC(=O)[O-] (stereo not drawn) [CARNITINE]
,Not Active,Not Active,CN(C)C(=N)N=C(N)N [METFORMIN]
